Data reported in patent US10363298B2, “Immunomodulatory compounds” (priority 2014, dated 2019).
Like-named read-outs stand apart in the source and are kept apart here.

Columns and labels:
[1] = biological target: influenza virus haemagglutinin (HA) monomer (Influenza A virus, UniProt P03437); conditions: read-out: affinity for its receptor; cited from earlier work
[2] = biological target: multivalent forms of VcCBM and SpCBM; assay: Surface plasmon resonance, summary statement for the multivalent forms; conditions: read-out: dissociation constants, SPR
Text: Tandem-repeat multivalent protein, Vc4CBM, based on the Family 40^31 sialic acid binding domain (CBM) of the nanH gene encoding the sialidase from V. cholerae, was generated using PCR-based cloning techniques as described previously^8. Oligomerisation of the CBM domain from V. cholerae nanH sialidase, and from S. pneumoniae nanA sialidase, using the trimerisation domain from the pseudaminidase protein from Pseudomonas aeruginosa was engineered as follows: the DNA fragments encoding the CBM of V. cholerae sialidase residues 25-216, and that of S. pneumoniae nanA sialidase residues 121-305, respectively, were modified at the 5′ and 3′ termini by PCR amplification using primer pairs (Table 3) to incorporate different restriction sites to link one or two copies of the CBM unit in tandem for subsequent ligation to the gene encoding the trimerization domain from P. aeruginosa pseudaminidase residues 333-438 (PaTD). The resulting fragments were cloned either into an appropriately digested pEHISTEV vector (for VcCBM fragments) or pEGFP-HISTEV vector (for SpCBM fragments) to create constructs designated as VcCBMTD, Vc2CBMTD, SpCBMTD and Sp2CBMTD, respectively (FIG. 1). […] All constructs were propagated in E. coli DH5a cells, and constructs were verified by DNA sequencing, before transforming the expression host E. coli BL21 Gold (DE3) for protein production. […]

[3] = biological target: Vc4CBM (tandem-repeat multivalent protein of four sialic acid binding domains of V. cholerae NanH sialidase, residues 25-216, SEQ ID NO: 2) (Vibrio cholerae, UniProt A5F7A4); assay: Surface plasmon resonance (Biacore T-100): binding to immobilized multivalent, biotinylated α-2,3-sialyllactose-PAA; conditions: mean ± s.d. of three replicates
Text: (§1) Tandem-repeat multivalent protein, Vc4CBM, based on the Family 40^31 sialic acid binding domain (CBM) of the nanH gene encoding the sialidase from V. cholerae, was generated using PCR-based cloning techniques as described previously^8. Oligomerisation of the CBM domain from V. cholerae nanH sialidase, and from S. pneumoniae nanA sialidase, using the trimerisation domain from the pseudaminidase protein from Pseudomonas aeruginosa was engineered as follows: the DNA fragments encoding the CBM of V. cholerae sialidase residues 25-216, and that of S. pneumoniae nanA sialidase residues 121-305, respectively, were modified at the 5′ and 3′ termini by PCR amplification using primer pairs (Table 3) to incorporate different restriction sites to link one or two copies of the CBM unit in tandem for subsequent ligation to the gene encoding the trimerization domain from P. aeruginosa pseudaminidase residues 333-438 (PaTD). The resulting fragments were cloned either into an appropriately digested pEHISTEV vector (for VcCBM fragments) or pEGFP-HISTEV vector (for SpCBM fragments) to create constructs designated as VcCBMTD, Vc2CBMTD, SpCBMTD and Sp2CBMTD, respectively (FIG. 1). […] All constructs were propagated in E. coli DH5a cells, and constructs were verified by DNA sequencing, before transforming the expression host E. coli BL21 Gold (DE3) for protein production.
(§2) Expression of engineered mCBMs was performed as described previously^8 with some modifications. Briefly, E. coli cells containing either His-tagged VcCBMs or GFP-His-tagged SpCBMs were lysed in a buffer containing PBS, 0.3M NaCl and 10 mM imidazole with DNAase (20 μg/ml) and protease (minus EDTA) inhibitor tablets (Roche). Clarified lysates were applied onto a HisTrap HP column, pre-charged with nickel (GE Healthcare) before elution of histidine-tagged CBMs using PBS containing 0.3 M NaCl and 250 mM imidazole. Removal of tag, unless otherwise stated, was performed by digestion in situ with TEV protease overnight before re-applying material to the nickel column. All mCBM proteins were further purified using size exclusion chromatography with a HiPrep 16/60 Sephacryl S200HR column (GE Healthcare) in PBS before using either a Vivapure S Maxi H (VcCBMs) or Q Maxi H (SpCBMs) column (Sartorius) to remove endotoxins. GFP-tagged proteins were also subjected to affinity chromatography and size exclusion chromatography as described above. […] Protein purity and size were verified by 12% SDS polyacrylamide gel electrophoresis and mass spectrometry. Purified mCBMs binding to sialic acid was verified by surface plasmon resonance (Biacore T-100, University of Edinburgh) using a streptavidin-coated biosensor chip immobilized with a multivalent, biotinylated α-2,3-sialyllactose-PAA (Glycotech) (Table 1).

[4] = biological target: VcCBMTD (CBM of V. cholerae NanH sialidase, residues 25-216, SEQ ID NO: 2, fused to trimerisation domain of P. aeruginosa pseudaminidase, residues 333-438, SEQ ID NO: 6) (Vibrio cholerae, UniProt A5F7A4); assay: as above; conditions: mean ± s.d. of three replicates
Text: as §1, §2

[5] = biological target: Vc2CBMTD (two tandem CBMs of V. cholerae NanH sialidase, residues 25-216, SEQ ID NO: 2, fused to trimerisation domain of P. aeruginosa pseudaminidase, residues 333-438, SEQ ID NO: 6) (Vibrio cholerae serotype O1, UniProt A5F7A4); assay: as above; conditions: mean ± s.d. of three replicates
Text: as §1, §2

[6] = read-out: ka (association ('on') rate constant), 15 °C
[7] = read-out: ka (association ('on') rate constant), 25 °C
[8] = read-out: ka (association ('on') rate constant), 37 °C
[9] = read-out: kd (dissociation ('off') rate constant), 15 °C
[10] = read-out: kd (dissociation ('off') rate constant), 25 °C
[11] = read-out: kd (dissociation ('off') rate constant), 37 °C

Molecule	Kd [1] [mM]	Kd [2] [nM]	kon [3, 6] [M⁻¹ s⁻¹]	kon [3, 7] [M⁻¹ s⁻¹]	kon [3, 8] [M⁻¹ s⁻¹]	koff [3, 9] [s⁻¹]	koff [3, 10] [s⁻¹]	koff [3, 11] [s⁻¹]	kon [4, 6] [M⁻¹ s⁻¹]	kon [4, 7] [M⁻¹ s⁻¹]	kon [4, 8] [M⁻¹ s⁻¹]	koff [4, 9] [s⁻¹]	koff [4, 10] [s⁻¹]	koff [4, 11] [s⁻¹]	kon [5, 6] [M⁻¹ s⁻¹]	kon [5, 7] [M⁻¹ s⁻¹]	kon [5, 8] [M⁻¹ s⁻¹]	koff [5, 9] [s⁻¹]	koff [5, 10] [s⁻¹]	koff [5, 11] [s⁻¹]
sialic acid	~2.5	–	–	–	–	–	–	–	–	–	–	–	–	–	–	–	–	–	–	–
CC(=O)N[C@H]1[C@H]([C@H](O)[C@H](O)CO)O[C@@](O[C@H]2[C@@H](O)[C@@H](CO)O[C@@H](O[C@H]3[C@H](O)[C@@H](O)C(O)O[C@@H]3CO)[C@@H]2O)(C(=O)O)C[C@@H]1O (stereo partly drawn) [α-2,3-sialyllactose]	–	< 1	540000 ± 10000	3.56e+06 ± 20000	2.98e+06 ± 20000	0.00051 ± 1e-05	0.0016 ± 1e-05	0.00541 ± 4e-05	2.55e+06 ± 20000	7.24e+06 ± 60000	2.07e+07 ± 540000	0.0042 ± 2e-05	0.0124 ± 0.0001	0.107	1.83e+06 ± 10000	1.73e+06 ± 10000	8.45e+06 ± 50000	0.00033 ± 1e-05	0.0007 ± 1e-05	0.00207 ± 1e-05
